Assay [1] deals with rat model of surgically-induced glaucoma. The assay can be described thus: Intraocular pressure (IOP, TonoPen) in rat model of surgically-induced glaucoma (episcleral vein cauterization). Format: in vivo, Brown Norway rats. Conditions: for effect on IOP in control (nonglaucomatous, non-operated) eyes: subconjunctival injection; for effect on IOP in glaucomatous eyes (CXCR4 antagonist comparison): subconjunctival injections, FIG. 3. As to the method: In order to test the functionality of putative CXCR3 blocking compounds on intraocular pressure (IOP), an in vivo test is necessary. For that purpose a model of local eye hypertonia is highly relevant. The model of ocular hypertonia in rats by episcleral vein occlusion (Garcia-Valenzuela et al., 1995) as described in the figures can be used to test such molecules.
Subconjunctival injections of NBI74330 (1 μM) or vehicle were performed in glaucoma eyes and in control eyes. One single injection of NBI (A) induced a reduction in IOP during 3 days (p<0.001). Two injections of NBI (A and B) induced a decrease in IOP during 12 days (p<0.001). […] (In vivo measurements of the IOP using TonoPen).
Male 8-week-old Brown Norway rats weighing 300-400 g were housed in Jussieu animal house (UMRS968, Vision Institute, Paris, France). All experiments were conducted in accordance with the Association for Research in Vision and Ophthalmology for the Use of Animals in Ophthalmic research. Ocular integrity was checked using slit lamp biomicroscope. Surgical model of elevated IOP was induced in the right eye of each rat by cauterization of three episcleral veins after conjunctival dissection as previously reported [Bayer A U et Al., 2001 and Garcia-Valenzuela E et Al., 1995] under general anaesthesia (intra peritoneal injection of ketamine 75 mg/kg and xylazine 10 mg/kg). Left eyes underwent conjunctival dissection only as controls. After the surgery, animals were maintained for a 1-month period and monitored for IOP three times a week using a handheld tonometer (Tonopen, Medtronics, Jacksonville, Fla.) without sedation. 30 animals presenting a stable elevated IOP were included and randomly divided in three equal groups: in both eyes, 10 rats received one subconjunctival injection of NBI74330 (1 μM, 100 μl), […], and 10 rats received a vehicle injection (PBS, 100 μl). IOP was monitored every two days by one independent person i.e. who was blind of the treatment. At the end of the experiments, animals were euthanized and the eyes were immediately conditioned for IHC.

For assay [2] the test system is unchanged. The assay is described as follows: Aqueous humor outflow by in vivo fluorophotometry in rat glaucoma model. The arrangement: species or system Brown Norway rats. Conditions: glaucomatous eyes vs vehicle-treated; 1 μM, 100 μL, two subconjunctival injections. As to the method: (§1) Aqueous humor outflow was measured by in vivo fluorophotometry (FIG. 4A) and the trabecular aqueous outflow evaluated by fluorescent microsphere injection and ex vivo confocal imaging of TMs (data not shown). […] In parallel, rat TM tissues were assessed for cellularity and apoptosis by immunohistofluorescence and TUNEL-labeling.

In another assay the test system is trabecular meshwork. The assay is described as follows: Trabecular percent effective filtration length (fluorescent microsphere injection, ex vivo confocal imaging of TMs). Conditions: glaucomatous eyes; 1 μM, 100 μL, two subconjunctival injections. Type of assay: in vivo, Brown Norway rats. On the procedure:
as §1

A further assay deals with trabecular cells. The assay can be described thus: Trabecular cell apoptosis by TUNEL-labeling in rat glaucoma model. Format: in vivo, Brown Norway rats. The settings on record: glaucoma eyes treated vs untreated. As to the method: (§2) Eyes were conditioned into cryosections and assessed for apoptosis using TUNEL-labeling. TM was identified in each cryosections as a pigmented slim tissue on the posterior sclera-cornea beside the iris root and just above the endothelial Schlemm's canals.
Investigations were conducted in order to study mechanisms involved in the NBI-74330-related decrease in IOP. Aqueous humor outflow was measured by in vivo fluorophotometry (FIG. 4A) and the trabecular aqueous outflow evaluated by fluorescent microsphere injection and ex vivo confocal imaging of TMs (data not shown). […] This decrease in trabecular outflow facility is similar to what is observed during hypertensive POAG in humans. […] In parallel, rat TM tissues were assessed for cellularity and apoptosis by immunohistofluorescence and TUNEL-labeling.

A further assay has as its system retinal ganglion cells. The assay is described as follows: Apoptosis of Schlemm cells, retinal cells and retinal ganglion cells by TUNEL-labeling in rat glaucoma model. Type of assay: in vivo, Brown Norway rats.
Excerpt: as §2
Moreover, NBI-related reduction in IOP was associated with a decrease in retinal ganglion cell apoptosis as assessed by TUNEL-labeling (4.01±0.86, 11.11±3.62, and 5.73±1.15 apoptotic retinal ganglion cells/mm for control eyes, untreated glaucomatous eyes, and NBI-treated glaucomatous eyes, respectively; P<0.05 between each group).

[3] abbreviates: glaucoma eyes treated vs untreated.

Entries after “also recorded” stand apart in the source; their conditions may differ.

Consider `c1cc(CN2CCCNCCNCCCNCC2)ccc1CN1CCCNCCNCCCNCC1` [AMD3100], for which the “effect on IOP in control (nonglaucomatous, non-operated) eyes” value in assay [1] is “did not affect the IOP; also recorded: had no effect on the basal IOP level”; in assay [1] (listed as AMD-3100), “had any effect on IOP”. In addition, the “effect on IOP in glaucomatous eyes (CXCR4 antagonist comparison)” value in assay [1] (glaucomatous eyes (n=20)) is “did not affect the IOP”; in assay [1] (glaucomatous eyes (n=20), listed as AMD-3100), “did not influence IOP”.

For the compound `CCOc1ccc(-n2c(C(C)N(Cc3cccnc3)C(=O)Cc3ccc(F)c(C(F)(F)F)c3)nc3ncccc3c2=O)cc1` (stereo not shown) [NBI74330], the “effect on IOP in control (nonglaucomatous, non-operated) eyes” value in assay [1] was “did not influence the IOP; also recorded: had no effect on the basal IOP level”; in assay [1] (listed as NBI-74330) it was “had any effect on IOP”. Besides, the “duration of reduction in IOP” value in assay [1] (glaucoma eyes, one single subconjunctival injection, 1 μM, p<0.001) amounted to 3 days. Further, the “IOP after a second injection” value in assay [1] (glaucoma eyes, second subconjunctival injection 4 days after the first one) is reported as “a significantly low IOP was maintained until the end of the experiments”. The “time course of IOP lowering after a single injection” value in assay [1] (glaucoma eyes, single subconjunctival injection 1 μM, 100 μl) was “significant the 2nd to the 5th day after the treatment, reaching the average IOP level of control eyes”. In addition, the “duration of decrease in IOP” value in assay [1] (glaucoma eyes, two subconjunctival injections, 1 μM, p<0.001) worked out at 12 days. Further, in assay [1] (glaucomatous eyes (n=20), FIG. 2), the “dose dependence of IOP reduction” value is on record as “reduced the IOP in glaucomatous eyes (n=20) in a dose-dependent manner”. Also, the “effect on IOP in glaucoma eyes” value in assay [1] (surgically-induced elevated IOP, subconjunctival injection 1 μM, 100 μl) is given as “induced an IOP lowering”. Further, in assay [2], the “aqueous humor outflow (AHO)” value is “AHO was improved; also recorded: aqueous humor outflow impairment was significantly reversed”. For the same compound, in the assay with trabecular meshwork, the “percent effective filtration length (PEFL), trabecular filtrating surface” value was “significantly improved”. Further, the results for the “trabecular cell apoptosis (TUNEL)” value with trabecular cells and in the assay on trabecular cells (listed as NBI-74330) were “Apoptosis was higher in trabecular cells of untreated glaucoma eyes than in glaucoma eyes treated with NBI74330” and “Trabecular apoptosis was reversed; also recorded: significantly reduced the amount of apoptotic TCs”, respectively. For the same compound, the “retinal ganglion cell apoptosis (TUNEL)” value with retinal ganglion cells (NBI-treated glaucomatous eyes, control eyes 4.01±0.86, untreated glaucomatous eyes 11.11±3.62, P<0.05) is 5.73±1.15 apoptotic retinal ganglion cells/mm. Further, the “TUNEL labeling of endothelial Schlemm cells” value with retinal ganglion cells (setting [3]) is listed as “more TUNEL labeling in the untreated glaucoma eyes than in glaucoma eyes treated with NBI74330”. In the assay on retinal ganglion cells (setting [3]), the “TUNEL labeling of retinal cells (inner nuclear layer and ganglion cell layer)” value is listed as “more TUNEL labeling in the untreated glaucoma eyes than in glaucoma eyes treated with NBI74330”.
